The test system of the experiment is MV-4-11 cells. The experiment is described as follows: Gene expression microarray analysis (Affymetrix PrimeView) and GSEA. The experiment is classed as cell-based, human. Details: RFU PODN (11730768_x_at) / Fold change /veh PODN (11730768_x_at) / RFU LINC00158 (11744669_a_at) / Fold change /veh LINC00158 (11744669_a_at) / RFU DUSP10 (11751237_a_at) / Fold change /veh DUSP10 (11751237_a_at) / RFU ID3 (11757404_x_at) / Fold change /veh ID3 (11757404_x_at) / RFU PLEKHG5 (11737974_s_at) / Fold change /veh PLEKHG5 (11737974_s_at) / RFU LRRC4B (11730491_at) / Fold change /veh LRRC4B (11730491_at) / RFU GIMAP4 (11747438_a_at) / Fold change /veh GIMAP4 (11747438_a_at) / RFU KRT8 (11758183_x_at) / Fold change /veh KRT8 (11758183_x_at) / RFU CNN1 (11734310_a_at) / Fold change /veh CNN1 (11734310_a_at) / RFU VPS37D (11726825_at) / Fold change /veh VPS37D (11726825_at) / RFU C10orf10 (11716522_x_at) / Fold change /veh C10orf10 (11716522_x_at) / RFU KIR2DL2 /// KIR2DL4 /// KIR2DL5A /// KIR2DL5B /// KIR2DS1 /// KIR2DS2 /// KIR2DS3 /// KIR2DS4 /// KIR3DL3 /// KIR3DL3 /// KIR3DS1 (11738374_at) / Fold change /veh KIR2DL2 /// KIR2DL4 /// KIR2DL5A /// KIR2DL5B /// KIR2DS1 /// KIR2DS2 /// KIR2DS3 /// KIR2DS4 /// KIR3DL3 /// KIR3DL3 /// KIR3DS1 (11738374_at) / RFU C1QL1 (11718748_at) / Fold change /veh C1QL1 (11718748_at) / RFU TMPRSS4 (11747572_a_at) / Fold change /veh TMPRSS4 (11747572_a_at) / RFU HAMP (11756126_x_at) / Fold change /veh HAMP (11756126_x_at) / RFU RNFT2 (11725882_a_at) / Fold change /veh RNFT2 (11725882_a_at) / RFU NR4A2 (11747474_a_at) / Fold change /veh NR4A2 (11747474_a_at) / RFU ABCC12 (11746883_a_at) / Fold change /veh ABCC12 (11746883_a_at) / RFU TMEM136 (11760407_x_at) / Fold change /veh TMEM136 (11760407_x_at) / RFU CLDN22 /// WWC2 (11732394_at) / Fold change /veh CLDN22 /// WWC2 (11732394_at) / RFU HLA-DPB1 (11760878_x_at) / Fold change /veh HLA-DPB1 (11760878_x_at) / RFU SPINT1 (11716480_a_at) / Fold change /veh SPINT1 (11716480_a_at) / RFU GAP43 (11754022_s_at) / Fold change /veh GAP43 (11754022_s_at) / RFU A4GNT (11735810_at) / Fold change /veh A4GNT (11735810_at) / RFU PRB3 (11715151_x_at) / Fold change /veh PRB3 (11715151_x_at) / RFU TUBB4B (11761932_at) / Fold change /veh TUBB4B (11761932_at) / RFU CAPN14 (11732068_a_at) / Fold change /veh CAPN14 (11732068_a_at) / RFU TMCC2 (11721928_a_at) / Fold change /veh TMCC2 (11721928_a_at) / RFU IRGQ (11745062_a_at) / Fold change /veh IRGQ (11745062_a_at) / RFU FAM174B (11720279_a_at) / Fold change /veh FAM174B (11720279_a_at) / RFU TMPRSS4 (11748680_a_at) / Fold change /veh TMPRSS4 (11748680_a_at) / RFU FAM212B (11763350_a_at) / Fold change /veh FAM212B (11763350_a_at) / RFU PLEKHG5 (11743358_a_at) / Fold change /veh PLEKHG5 (11743358_a_at) / RFU ZSCAN30 (11745921_a_at) / Fold change /veh ZSCAN30 (11745921_a_at) / RFU CMKLR1 (11741424_a_at) / Fold change /veh CMKLR1 (11741424_a_at) / RFU LOC101060620 /// MAPK8IP1 (11723275_at) / Fold change /veh LOC101060620 /// MAPK8IP1 (11723275_at) / RFU SPTSSB (11747773_x_at) / Fold change /veh SPTSSB (11747773_x_at) / RFU PRSS12 (11739890_at) / Fold change /veh PRSS12 (11739890_at) / RFU BIN1 (11741810_x_at) / Fold change /veh BIN1 (11741810_x_at) / RFU WNT11 (11732464_a_at) / Fold change /veh WNT11 (11732464_a_at) / RFU C10orf10 (11716521_a_at) / Fold change /veh C10orf10 (11716521_a_at) / RFU C5orf56 (11738089_at) / Fold change /veh C5orf56 (11738089_at) / RFU CYB561 (11721691_x_at) / Fold change /veh CYB561 (11721691_x_at) / RFU ANKRD19P (11752326_a_at) / Fold change /veh ANKRD19P (11752326_a_at) / RFU OR2T12 /// OR2T33 /// OR2T8 (11738714_s_at) / Fold change /veh OR2T12 /// OR2T33 /// OR2T8 (11738714_s_at) / RFU VCAN (11748164_a_at) / Fold change /veh VCAN (11748164_a_at) / RFU JSRP1 (11732532_at) / Fold change /veh JSRP1 (11732532_at) / RFU KRTAP10-11 (11738290_x_at) / Fold change /veh KRTAP10-11 (11738290_x_at) / RFU MYO3A (11730013_a_at) / Fold change /veh MYO3A (11730013_a_at) / RFU EBF3 (11725865_a_at) / Fold change /veh EBF3 (11725865_a_at) / RFU CAMK2N1 (11719241_x_at) / Fold change /veh CAMK2N1 (11719241_x_at) / RFU C5orf56 (11738088_a_at) / Fold change /veh C5orf56 (11738088_a_at) / RFU OLFML3 (11715873_a_at) / Fold change /veh OLFML3 (11715873_a_at) / RFU LOC100653217 /// NTM (11731650_a_at) / Fold change /veh LOC100653217 /// NTM (11731650_a_at) / RFU MAPK11 (11762145_a_at) / Fold change /veh MAPK11 (11762145_a_at) / RFU FIZ1 (11724087_x_at) / Fold change /veh FIZ1 (11724087_x_at) / RFU OASL (11726364_x_at) / Fold change /veh OASL (11726364_x_at) / RFU SOX15 (11748057_x_at) / Fold change /veh SOX15 (11748057_x_at) / RFU CD79A (11719716_a_at) / Fold change /veh CD79A (11719716_a_at) / RFU HIST1H1D (11736915_at) / Fold change /veh HIST1H1D (11736915_at) / RFU CASKIN2 (11723855_a_at) / Fold change /veh CASKIN2 (11723855_a_at) / RFU LOC730098 (11760151_x_at) / Fold change /veh LOC730098 (11760151_x_at) / RFU OR4N2 (11742367_at) / Fold change /veh OR4N2 (11742367_at) / RFU PRRT2 (11749266_a_at) / Fold change /veh PRRT2 (11749266_a_at) / RFU SNX32 (11753110_a_at) / Fold change /veh SNX32 (11753110_a_at) / RFU CDHR5 (11726645_a_at) / Fold change /veh CDHR5 (11726645_a_at) / RFU RCAN1 (11760418_a_at) / Fold change /veh RCAN1 (11760418_a_at) / RFU FAM167A (11723789_a_at) / Fold change /veh FAM167A (11723789_a_at) / RFU FAM26E (11764081_at) / Fold change /veh FAM26E (11764081_at) / RFU ISYNA1 (11749810_s_at) / Fold change /veh ISYNA1 (11749810_s_at) / RFU ACY1 (11761880_at) / Fold change /veh ACY1 (11761880_at) / RFU 11764098_at / Fold change /veh 11764098_at / RFU SAMD14 (11745864_x_at) / Fold change /veh SAMD14 (11745864_x_at) / RFU NPB (11741838_a_at) / Fold change /veh NPB (11741838_a_at) / RFU TMPRSS6 (11731388_a_at) / Fold change /veh TMPRSS6 (11731388_a_at) / RFU KRTAP10-2 (11738614_at) / Fold change /veh KRTAP10-2 (11738614_at) / RFU ARHGAP8 /// PRR5-ARHGAP8 (11727945_x_at) / Fold change /veh ARHGAP8 /// PRR5-ARHGAP8 (11727945_x_at) / RFU KRTAP5-7 /// NADSYN1 (11734609_at) / Fold change /veh KRTAP5-7 /// NADSYN1 (11734609_at) / RFU RASL12 (11751679_a_at) / Fold change /veh RASL12 (11751679_a_at) / RFU CDKN2B (11736163_a_at) / Fold change /veh CDKN2B (11736163_a_at) / RFU PRF1 (11729649_at) / Fold change /veh PRF1 (11729649_at) / RFU, ZNF638 /// ZNF638-IT1 / Fold change vs veh, ZNF638 /// ZNF638-IT1 / RFU, PANK3 / Fold change vs veh, PANK3 / RFU, SH3YL1 / Fold change vs veh, SH3YL1 / RFU, ZEB2 / Fold change vs veh, ZEB2 / RFU, NRIP1 / Fold change vs veh, NRIP1 / RFU, PTTG1IP / Fold change vs veh, PTTG1IP / RFU, CAPN2 / Fold change vs veh, CAPN2 / RFU, MED14 / Fold change vs veh, MED14 / RFU, SNORA58 / Fold change vs veh, SNORA58 / RFU, C1orf63 / Fold change vs veh, C1orf63 / RFU, LRRFIP1 / Fold change vs veh, LRRFIP1 / RFU, NDUFAF7 / Fold change vs veh, NDUFAF7 / RFU, SLC12A2 / Fold change vs veh, SLC12A2 / RFU, IBTK / Fold change vs veh, IBTK / RFU, ESF1 / Fold change vs veh, ESF1 / Fold change vs veh, TMEM50B / RFU, TAOK1 / Fold change vs veh, TAOK1 / RFU, ACBD3 / Fold change vs veh, ACBD3 / RFU, TMA16 / Fold change vs veh, TMA16 / RFU, RWDD3 / Fold change vs veh, RWDD3 / RFU, BCAT1 / Fold change vs veh, BCAT1 / RFU, EDEM3 / Fold change vs veh, EDEM3 / RFU, TMEM33 / Fold change vs veh, TMEM33 / RFU, WDR75 / Fold change vs veh, WDR75 / RFU, AHCTF1 / Fold change vs veh, AHCTF1 / RFU, TFRC / Fold change vs veh, TFRC / RFU, ZDHHC17 / Fold change vs veh, ZDHHC17 / RFU, NOM1 / Fold change vs veh, NOM1 / RFU, ARL8B / Fold change vs veh, ARL8B / RFU, ZBTB11 / Fold change vs veh, ZBTB11 / RFU, TAMM41 / Fold change vs veh, TAMM41 / RFU, KIAA1704 /// LOC100996395 / Fold change vs veh, KIAA1704 /// LOC100996395 / RFU, ING1 / Fold change vs veh, ING1 / RFU, TRMT61B / Fold change vs veh, TRMT61B / RFU, FUBP3 / Fold change vs veh, FUBP3 / RFU, TP53 / Fold change vs veh, TP53 / RFU, TNKS2 / Fold change vs veh, TNKS2 / RFU, ZFP14 / Fold change vs veh, ZFP14 / RFU, ACTR2 / Fold change vs veh, ACTR2 / RFU, PPP3R1 / Fold change vs veh, PPP3R1 / RFU, PIK3R1 / Fold change vs veh, PIK3R1 / RFU, HNRNPA1 / Fold change vs veh, HNRNPA1 / RFU, RNF170 / Fold change vs veh, RNF170 / RFU, ZNF28 / Fold change vs veh, ZNF28 / RFU, RNGTT / Fold change vs veh, RNGTT / RFU, OGT / Fold change vs veh, OGT / RFU, BRD1 / Fold change vs veh, BRD1 / RFU, MARS / Fold change vs veh, MARS / RFU, ZNF655 / Fold change vs veh, ZNF655 / RFU, FAHD1 / Fold change vs veh, FAHD1 / RFU, BDP1 / Fold change vs veh, BDP1 / RFU, LRRCC1 / Fold change vs veh, LRRCC1 / RFU, ARID1A / Fold change vs veh, ARID1A / RFU, ZNF146 / Fold change vs veh, ZNF146 / RFU, ZNF330 / Fold change vs veh, ZNF330 / RFU, GPN3 / Fold change vs veh, GPN3 / RFU, C9orf123 / Fold change vs veh, C9orf123 / RFU, N4BP2L2 / Fold change vs veh, N4BP2L2 / RFU, ARFIP1 / Fold change vs veh, ARFIP1 / RFU, FAM179B / Fold change vs veh, FAM179B / RFU, BCL10 / Fold change vs veh, BCL10 / RFU, UHRF1BP1L / Fold change vs veh, UHRF1BP1L / RFU, BET1 / Fold change vs veh, BET1 / RFU, CNOT2 / Fold change vs veh, CNOT2 / RFU, ZNF268 / Fold change vs veh, ZNF268 / Fold change vs veh, ZNF507 / RFU, DGCR2 / Fold change vs veh, DGCR2 / RFU, WDSUB1 / Fold change vs veh, WDSUB1 / Fold change vs veh, HSP90B1 /// MIR3652 / RFU, ADSS / Fold change vs veh, ADSS / RFU, GK / Fold change vs veh, GK / RFU, ZNF148 / Fold change vs veh, ZNF148 / RFU, TAF9 / Fold change vs veh, TAF9 / RFU, SLC1A5 / Fold change vs veh, SLC1A5 / RFU, SLMO2 / Fold change vs veh, SLMO2 / RFU, ABCC4 / Fold change vs veh, ABCC4 / RFU, LOC101060439 /// RAP1B / Fold change vs veh, LOC101060439 /// RAP1B / RFU, RFX7 / Fold change vs veh, RFX7 / RFU, GTPBP10 / Fold change vs veh, GTPBP10 / RFU, CNEP1R1 / Fold change vs veh, CNEP1R1 / RFU, BIVM-ERCC5 /// ERCC5 / Fold change vs veh, BIVM-ERCC5 /// ERCC5 / RFU, ILF3 / Fold change vs veh, ILF3 / RFU 11762660_at / Fold change /veh 11762660_at / RFU VCAN (11757783_s_at) / Fold change /veh VCAN (11757783_s_at) / RFU DDX43 (11728927_at) / Fold change /veh DDX43 (11728927_at) / RFU KRT8 (11758188_x_at) / Fold change /veh KRT8 (11758188_x_at) / RFU NKD1 (11759106_at) / Fold change /veh NKD1 (11759106_at) / RFU SRD5A1 (11742802_a_at) / Fold change /veh SRD5A1 (11742802_a_at) / RFU TPSAB1 /// TPSB2 (11721975_s_at) / Fold change /veh TPSAB1 /// TPSB2 (11721975_s_at) / RFU GSTM3 (11746129_a_at) / Fold change /veh GSTM3 (11746129_a_at) / RFU IL23R (11737362_x_at) / Fold change /veh IL23R (11737362_x_at) / RFU TMEM51 (11727254_a_at) / Fold change /veh TMEM51 (11727254_a_at) / RFU PIWIL2 (11732686_x_at) / Fold change /veh PIWIL2 (11732686_x_at) / RFU ORM1 (11744905_x_at) / Fold change /veh ORM1 (11744905_x_at) / RFU CCDC152 (11743942_at) / Fold change /veh CCDC152 (11743942_at) / RFU ECM1 (11717891_a_at) / Fold change /veh ECM1 (11717891_a_at) / RFU IL23R (11748794_a_at) / Fold change /veh IL23R (11748794_a_at) / RFU TNFAIP8L3 (11732012_x_at) / Fold change /veh TNFAIP8L3 (11732012_x_at) / RFU MBOAT4 (11741988_at) / Fold change /veh MBOAT4 (11741988_at) / RFU 11764193_at / Fold change /veh 11764193_at / RFU TMEM53 (11763286_at) / Fold change /veh TMEM53 (11763286_at) / RFU MAGEB2 (11727129_at) / Fold change /veh MAGEB2 (11727129_at) / RFU TMEM200A (11744735_a_at) / Fold change /veh TMEM200A (11744735_a_at) / RFU CCDC152 (11751479_a_at) / Fold change /veh CCDC152 (11751479_a_at) / RFU FAM211A (11726209_a_at) / Fold change /veh FAM211A (11726209_a_at) / RFU RGS16 (11746705_a_at) / Fold change /veh RGS16 (11746705_a_at) / RFU VCAN (11755009_s_at) / Fold change /veh VCAN (11755009_s_at) / RFU RHOB (11743442_s_at) / Fold change /veh RHOB (11743442_s_at) / RFU RGS16 (11720943_a_at) / Fold change /veh RGS16 (11720943_a_at) / RFU RGS16 (11720944_at) / Fold change /veh RGS16 (11720944_at) / RFU, VPS4B / Fold change vs veh, VPS4B / RFU, CREB1 / Fold change vs veh, CREB1 / RFU, DNAJC13 / Fold change vs veh, DNAJC13 / RFU, GNAQ / Fold change vs veh, GNAQ / RFU, CDK5R1 / Fold change vs veh, CDK5R1 / RFU, ZRANB3 / Fold change vs veh, ZRANB3 / RFU, CUL4A / Fold change vs veh, CUL4A / RFU, CCNY / Fold change vs veh, CCNY / RFU, UFL1 / Fold change vs veh, UFL1 / RFU, COG3 / Fold change vs veh, COG3 / RFU, DIAPH2 / Fold change vs veh, DIAPH2 / RFU, SKA2 / Fold change vs veh, SKA2 / RFU, AFF3 / Fold change vs veh, AFF3 / RFU, LMF1 / Fold change vs veh, LMF1 / RFU, IPO11 / Fold change vs veh, IPO11 / RFU, DFFB / Fold change vs veh, DFFB / RFU, FOXP1 / Fold change vs veh, FOXP1 / RFU, CARD8 / Fold change vs veh, CARD8 / RFU, STRN3 / Fold change vs veh, STRN3 / RFU, ADK / Fold change vs veh, ADK / RFU, RASSF2 / Fold change vs veh, RASSF2 / RFU, WIPF1 / Fold change vs veh, WIPF1 / RFU, LARP1B / Fold change vs veh, LARP1B / RFU, RASA1 / Fold change vs veh, RASA1 / RFU, RB1 / Fold change vs veh, RB1 / RFU, PPFIA1 / Fold change vs veh, PPFIA1 / RFU, MAT2A / Fold change vs veh, MAT2A / RFU, CCT5 / Fold change vs veh, CCT5 / RFU, WDR92 / Fold change vs veh, WDR92 / RFU, CUX1 / Fold change vs veh, CUX1 / RFU, TTC7A / Fold change vs veh, TTC7A / RFU, TMEM135 / Fold change vs veh, TMEM135 / RFU, DEPTOR / Fold change vs veh, DEPTOR / RFU, CPM / Fold change vs veh, CPM / RFU, DNAJB6 / Fold change vs veh, DNAJB6 / RFU, CACNA2D3 / Fold change vs veh, CACNA2D3 / RFU, DTX4 / Fold change vs veh, DTX4 / RFU, TFCP2 / Fold change vs veh, TFCP2 / RFU, GMCL1 /// GMCL1P1 / Fold change vs veh, GMCL1 /// GMCL1P1 / RFU, AEBP2 / Fold change vs veh, AEBP2 / RFU, SNHG1 /// SNORD22 /// SNORD25 /// SNORD26 /// SNORD27 /// SNORD28 /// SNORD29 /// SNORD31 / Fold change vs veh, SNHG1 /// SNORD22 /// SNORD25 /// SNORD26 /// SNORD27 /// SNORD28 /// SNORD29 /// SNORD31 / Fold change (Aza/veh), C12orf56 (ProbeSet 11735607_a_at) / Fold change (ACY-1035/veh), C12orf56 (ProbeSet 11735607_a_at) / Fold change (Aza/veh), FGFR1OP (ProbeSet 11751329_s_at) / Fold change (ACY-1035/veh), FGFR1OP (ProbeSet 11751329_s_at) / Fold change (Aza/veh), VPS36 (ProbeSet 11739960_a_at) / Fold change (ACY-1035/veh), VPS36 (ProbeSet 11739960_a_at) / RFU SYPL1 (11715823_x_at) / Fold change /veh SYPL1 (11715823_x_at) / RFU IGFBP7 (11715501_s_at) / Fold change /veh IGFBP7 (11715501_s_at) / RFU REEP3 (11722064_at) / Fold change /veh REEP3 (11722064_at) / RFU IGLL1 (11728026_x_at) / Fold change /veh IGLL1 (11728026_x_at): dose or concentration left out as unconfirmed. The conditions noted are these: ProbeSet 11733831_s_at; LIST D.

Turning to `Nc1ccc(-c2cccs2)cc1NC(=O)c1ccc2c(c1)cc(C1CC1)n2CCN1CCOCC1` [ACY-1035], the “Fold change vs veh, GMCL1 /// GMCL1P1” value is listed as 0.86.

The values are drawn from paper PMC5218480 (PLoS ONE, 2017).
